Test results taken from US9074014B2 (Ipsen Pharma S.A.S., priority 2008, dated 2015).
*1 amine or outer side, *2 acyl side, *3 side chain or, on linkers, in order; H or OH if unused. Where a SMILES comes first, the peptide text is derived from it. Where no end group is shown, it is not given here. [ ]: non-standard residue; d: D form. The star is where a group is joined. NMeY = CN[C@@H](Cc1ccc(O)cc1)C(=O)O; X2 = O=C([C@@H]1CC(O)CN1[*:1])[*:2]; Pip = O=C(O)[C@@H]1CCCCN1; Ac6c = NC1(C(=O)O)CCCCC1; Nle = CCCC[C@H](N)C(=O)O; X1 = CCCN1C(=O)CC(*)C1=O; Ac5c = NC1(C(=O)O)CCCC1; Aib = CC(C)(N)C(=O)O

Assays:
[1] = Human plasma half-life assay; assay type: in vitro ADME; settings: human plasma, 37° C., LC-MS; for half-life at 0.1 mg/ml: read-out: Human Plasma T½ (converted)
Procedure: (§1) B. Human and Rat Plasma Half-Life Assay
(§2) 50 μL was removed at various times, like at 0, 1, 2, 3, 4, 8, 24, 32, 48, 56, 72 hours, mixed with 5 μL formic acid and 150 μL acetonitrile in a microcentrifuge tube, vertexed, and centrifuged for 10 minutes at 10K rpm. The supernatant was transferred to an injection vial and analyzed by LC-MS. The LC-MS system consisted of an API4000 mass spectrometer with an ESI probe. Positive ion mode and full scan detection were used. HPLC separation was carried out on a Luna 3μ C8 (2), 2×30 mm column with a gradient from 90% A to 90% B in 10 minutes at a flow rate of 0.3 ml/min. Buffer A was 1% formic acid in water and buffer B was 1% formic acid acetonitrile.

[2] = Rat plasma half-life assay; assay type: in vitro ADME; settings: rat plasma, 37° C., LC-MS; for half-life at 0.1 mg/ml: read-out: Rat Plasma T½ (converted)
Procedure: as §1, §2

Compound | half-life at 0.1 mg/ml [1] | half-life at 0.1 mg/ml [2] | Human Plasma T½ [1] | Rat Plasma T½ [2]
H-YA[X2]GTFISDYSIA[Ac6c]DKIHQQDFVNWLLAQKGKKNDWKHNITQ-OH [Example 84, (4Hyp^3, A6c^14)hGIP(1-42)-OH] | 3.3 h | 1.9 h |  | 
Y[Aib]EGTFISDYS[Ac5c]AMDKIHQQDFVNWLLAQKGKKNDWKHNITQ-OH [Example 7, (Aib^2, A5c^12)hGIP(1-42)-OH] | 37.1 h | 5.3 h |  | 
CC[C@H](C)[C@H](NC(=O)[C@H](CCCCN)NC(=O)[C@H](CC(=O)O)NC(=O)[C@H](CCSC)NC(=O)[C@H](C)NC(=O)C(C)(C)NC(=O)[C@H](CO)NC(=O)[C@H](Cc1ccc(O)cc1)NC(=O)[C@H](CC(=O)O)NC(=O)[C@H](CO)NC(=O)[C@@H](NC(=O)[C@H](Cc1ccccc1)NC(=O)[C@@H](NC(=O)CNC(=O)[C@H](CCC(=O)O)NC(=O)C(C)(C)NC(=O)[C@@H](N)Cc1ccc(O)cc1)[C@@H](C)O)[C@@H](C)CC)C(=O)N[C@@H](Cc1c[nH]cn1)C(=O)N[C@@H](CCC(N)=O)C(=O)N[C@@H](CCC(N)=O)C(=O)N[C@@H](CC(=O)O)C(=O)N[C@@H](Cc1ccccc1)C(=O)N[C@H](C(=O)N[C@@H](CC(N)=O)C(=O)N[C@@H](Cc1c[nH]c2ccccc12)C(=O)N[C@@H](CC(C)C)C(=O)N[C@@H](CC(C)C)C(=O)N[C@@H](C)C(=O)N[C@@H](CCC(N)=O)C(=O)N[C@@H](CCCCN)C(N)=O)C(C)C [Example 20, (Aib^2, 12)hGIP(1-30)-NH2] (H-Y[Aib]EGTFISDYS[Aib]AMDKIHQQDFVNWLLAQK-NH2; N-terminus assumed) | 25.4 h | 42 h |  | 
CCCC[C@H](NC(=O)C(C)(C)NC(=O)[C@@H](NC(=O)[C@H](CO)NC(=O)[C@H](Cc1ccc(O)cc1)NC(=O)[C@H](CC(=O)O)NC(=O)[C@H](CO)NC(=O)[C@@H](NC(=O)[C@H](Cc1ccccc1)NC(=O)[C@@H](NC(=O)CNC(=O)[C@@H]1C(O)CCN1C(=O)[C@H](C)NC(=O)[C@@H](N)Cc1ccc(O)cc1)[C@@H](C)O)[C@@H](C)CC)[C@@H](C)CC)C(=O)N[C@@H](CC(=O)O)C(=O)N[C@@H](CCCCN)C(=O)N[C@H](C(=O)N[C@@H](Cc1c[nH]cn1)C(=O)N[C@@H](CCC(N)=O)C(=O)N[C@@H](CCC(N)=O)C(=O)N[C@@H](CC(=O)O)C(=O)N[C@@H](Cc1ccccc1)C(=O)N[C@H](C(=O)N[C@@H](CC(N)=O)C(=O)N[C@@H](Cc1c[nH]c2ccccc12)C(=O)N[C@@H](CC(C)C)C(=O)N[C@@H](CC(C)C)C(=O)N[C@@H](C)C(=O)N[C@@H](CCC(N)=O)C(=O)N[C@@H](CCCCN)C(=O)NCC(=O)N[C@@H](CCCCN)C(=O)N[C@@H](CCCCN)C(=O)N[C@@H](CC(N)=O)C(=O)N[C@@H](CC(=O)O)C(=O)N[C@@H](Cc1c[nH]c2ccccc12)C(=O)N[C@@H](CCCCN)C(=O)N[C@@H](Cc1c[nH]cn1)C(=O)N[C@@H](CC(N)=O)C(=O)N[C@H](C(=O)N[C@H](C(=O)N[C@@H](CCC(N)=O)C(=O)O)[C@@H](C)O)[C@@H](C)CC)C(C)C)[C@@H](C)CC (some centres unmarked) [Example 70, (3Hyp^3, Aib^13, Nle^14)hGIP(1-42)-OH] | > 33 h | 1.5 h |  | 
CC[C@H](C)[C@H](NC(=O)[C@H](CO)NC(=O)[C@H](Cc1ccc(O)cc1)NC(=O)[C@H](CC(=O)O)NC(=O)[C@H](CO)NC(=O)C1(NC(=O)[C@H](Cc2ccccc2)NC(=O)[C@@H](NC(=O)CNC(=O)[C@H](CCC(=O)O)NC(=O)C(C)(C)NC(=O)[C@@H](N)Cc2ccc(O)cc2)[C@@H](C)O)CCCCC1)C(=O)N[C@@H](C)C(=O)NC1(C(=O)N[C@@H](CC(=O)O)C(=O)N[C@@H](CCCCN)C(=O)N[C@H](C(=O)N[C@@H](Cc2c[nH]cn2)C(=O)N[C@@H](CCC(N)=O)C(=O)N[C@@H](CCC(N)=O)C(=O)N[C@@H](CC(=O)O)C(=O)N[C@@H](Cc2ccccc2)C(=O)N[C@H](C(=O)N[C@@H](CC(N)=O)C(=O)N[C@@H](Cc2c[nH]c3ccccc23)C(=O)N[C@@H](CC(C)C)C(=O)N[C@@H](CC(C)C)C(=O)N[C@@H](C)C(=O)N[C@@H](CCC(N)=O)C(=O)N[C@@H](CCCCN)C(N)=O)C(C)C)[C@@H](C)CC)CCCCC1 [Example 39, (Aib^2, A6c^7, 14)hGIP(1-30)-NH2] (H-Y[Aib]EGTF[Ac6c]SDYSIA[Ac6c]DKIHQQDFVNWLLAQK-NH2; N-terminus assumed) | 42.3 h | 43.3 h |  | 
YA[Pip]GTFISDYSI[Aib]MDKIHQQDFVNWLLAQKGKKNDWKHNITQ [Example 65, (hPro^3, Aib^13)hGIP(1-42)-OH] | 14.3 h | 1.5 h |  | 
Y[Aib]EGTF[Ac5c]SDYSIA[Ac6c]DKIHQQDFVNWLLAQKGKKNDWKHNITQ-OH [Example 44, (Aib^2, A5c^7, A6c^14)hGIP(1-42)-OH] | 9.5 h | 7.5 h |  | 
Y[Aib]EGTF[Ac6c]SDYSIAMDKIHQQDFVNWLLAQKGKKNDWKHNC(X1)TQ-OH [Example 78, [Aib^2, A6c^7, Cys(Psu)^40]hGIP(1-42)-OH] | 10.1 h | 11.2 h |  | 
CCCC[C@H](NC(=O)[C@H](C)NC(=O)[C@@H](NC(=O)C1(NC(=O)[C@H](Cc2ccc(O)cc2)NC(=O)[C@H](CC(=O)O)NC(=O)[C@H](CO)NC(=O)[C@@H](NC(=O)[C@H](Cc2ccccc2)NC(=O)[C@@H](NC(=O)CNC(=O)[C@H](CCC(=O)O)NC(=O)C(C)(C)NC(=O)[C@@H](N)Cc2ccc(O)cc2)[C@@H](C)O)[C@@H](C)CC)CCCC1)[C@@H](C)CC)C(=O)N[C@@H](CC(=O)O)C(=O)N[C@@H](CCCCN)C(=O)N[C@H](C(=O)N[C@@H](Cc1c[nH]cn1)C(=O)N[C@@H](CCC(N)=O)C(=O)N[C@@H](CCC(N)=O)C(=O)N[C@@H](CC(=O)O)C(=O)N[C@@H](Cc1ccccc1)C(=O)N[C@H](C(=O)N[C@@H](CC(N)=O)C(=O)N[C@@H](Cc1c[nH]c2ccccc12)C(=O)N[C@@H](CC(C)C)C(=O)N[C@@H](CC(C)C)C(=O)N[C@@H](C)C(=O)N[C@@H](CCC(N)=O)C(=O)N[C@@H](CCCCN)C(N)=O)C(C)C)[C@@H](C)CC [Example 50, (Aib^2, A5c^11, Nle^14)hGIP(1-30)-NH2] (H-Y[Aib]EGTFISDY[Ac5c]IA[Nle]DKIHQQDFVNWLLAQK-NH2; N-terminus assumed) |  |  | 48.1 h | >54 h
CCCC[C@H](NC(=O)[C@H](C)NC(=O)[C@@H](NC(=O)[C@H](CO)NC(=O)[C@H](Cc1ccc(O)cc1)NC(=O)[C@H](CC(=O)O)NC(=O)[C@H](CO)NC(=O)C1(NC(=O)[C@H](Cc2ccccc2)NC(=O)[C@@H](NC(=O)CNC(=O)[C@H](CCC(=O)O)NC(=O)C(C)(C)NC(=O)[C@@H](N)Cc2ccc(O)cc2)[C@@H](C)O)CCCC1)[C@@H](C)CC)C(=O)N[C@@H](CC(=O)O)C(=O)N[C@@H](CCCCN)C(=O)N[C@H](C(=O)N[C@@H](Cc1c[nH]cn1)C(=O)N[C@@H](CCC(N)=O)C(=O)N[C@@H](CCC(N)=O)C(=O)N[C@@H](CC(=O)O)C(=O)N[C@@H](Cc1ccccc1)C(=O)N[C@H](C(=O)N[C@@H](CC(N)=O)C(=O)N[C@@H](Cc1c[nH]c2ccccc12)C(=O)N[C@@H](CC(C)C)C(=O)N[C@@H](CC(C)C)C(=O)N[C@@H](C)C(=O)N[C@@H](CCC(N)=O)C(=O)N[C@@H](CCCCN)C(N)=O)C(C)C)[C@@H](C)CC [Example 32, (Aib^2, A5c^7, Nle^14)hGIP(1-30)-NH2] (H-Y[Aib]EGTF[Ac5c]SDYSIA[Nle]DKIHQQDFVNWLLAQK-NH2; N-terminus assumed) | > 48 h | 28.3 h |  | 
H-[NMeY][Aib]EGTFISDY[Ac5c]IA[Nle]DKIHQQDFVNWLLAQKGKKNDWKHNITQ-OH [Example 113, (NMe-Tyr^1, Aib^2, A5c^11, Nle^14)hGIP(1-42)-OH] | 61.9 h | 27 h |  | 
CC[C@H](C)[C@H](NC(=O)[C@H](CO)NC(=O)[C@H](Cc1ccc(O)cc1)NC(=O)[C@H](CC(=O)O)NC(=O)[C@H](CO)NC(=O)[C@@H](NC(=O)[C@H](Cc1ccccc1)NC(=O)[C@@H](NC(=O)C(C)(C)NC(=O)[C@H](CCC(=O)O)NC(=O)C(C)(C)NC(=O)[C@@H](N)Cc1ccc(O)cc1)[C@@H](C)O)[C@@H](C)CC)C(=O)N[C@@H](C)C(=O)N[C@@H](CCSC)C(=O)N[C@@H](CC(=O)O)C(=O)N[C@@H](CCCCN)C(=O)N[C@H](C(=O)N[C@@H](Cc1c[nH]cn1)C(=O)N[C@@H](CCC(N)=O)C(=O)N[C@@H](CCC(N)=O)C(=O)N[C@@H](CC(=O)O)C(=O)N[C@@H](Cc1ccccc1)C(=O)N[C@H](C(=O)N[C@@H](CC(N)=O)C(=O)N[C@@H](Cc1c[nH]c2ccccc12)C(=O)N[C@@H](CC(C)C)C(=O)N[C@@H](CC(C)C)C(=O)N[C@@H](C)C(=O)N[C@@H](CCC(N)=O)C(=O)N[C@@H](CCCCN)C(N)=O)C(C)C)[C@@H](C)CC [Example 14, (Aib^2, 4)hGIP(1-30)-NH2] | 34.8 h | 48 h |  | 
Y[Aib]EGTF[Ac6c]SDYSIAMDKIHQQDFVNWLLAQKGKKC(X1)DWKHNITQ-OH [Example 86, [Aib^2, A6c^7, Cys(Psu)^34]hGIP(1-42)-OH] | 4.2 h | 7 h |  | 
